Data as given in patent publication US20260317269A1, “Oxamate Derivatives and Prodrugs to Prevent CaOx Stone Formation” (Rutgers, The State University of New Jersey, priority 2023, published 2026).

Test: CaOx crystallization inhibition assay, remaining free oxalate in solution measured with EnzyChrom oxalate assay kit (Assay B)
Type: biochemical
Conditions: for pEC50 / Ratio: from EC50 in the CaOx crystallization inhibition assay; for pEC50: HEPES pH 6.8, r.t., footnote c not given; for pEC50 / EC50: 72 h; for EC50: inhibition of CaOx crystallization, 10 mM HEPES buffer, pH 6.8, 150 mM NaCl, supersaturated CaOx, r.t., remaining oxalate at OD 595 nm; for Ratio: ratio to citrate (citrate = 1)
Description: Calcium oxalate (CaOx) crystallization inhibition assays in HEPES buffer, pH 6.8 include Assay A and Assay B. Assay A: Fluorescence-based assay using Quin-2 to measure the concentration of free calcium in solution (Ex 340 nm/Em 495 nm) (FIG. 1). An example assay protocol is shown below.
Assay B: Spectrophotometric assay using EnzyChrom™ oxalate assay kit from Bioassay Systems (EOXA-100) to measure the concentration of free oxalate in solution at OD 595 nm.
For CaOx crystallization inhibition assay, equal volumes of 2 mM of CaCl2) was combined with […] of Na2Ox to generate […] supersaturated solutions of CaOx in 10 mM HEPES buffer, pH 6.8 containing 150 mM NaCl. The higher concentration of Ca^++ utilized in this assay was designed to mimic the typical calcium levels found in human urine. Following incubation with varying concentrations of inhibitors at r.t. for 72 h and subsequent centrifugation, the EnzyChrom™ oxalate assay kit (EOXA-100, BioAssay Systems) was employed to measure spectrophotometrically the remaining oxalate concentration in solution at 595 nm. This assay determined the EC50 for each inhibitor. This assay was used to determine the activity of about 50 oxamate derivatives synthesized. Separately, dose response curves can be obtained for calcium concentrations and inhibitors concentrations with supersaturated solution: 250 μM CaCl2+250 μM Na2C2O4 in 10 mM HEPES, pH 6.8+150 mM NaCl; Calcium concentration in supernatent after centrifuge was measured using Quin2 via a fluorescence assay (Ex 340 nm/Em 495 nm).
Table 1 lists the EC50's obtained using this assay for various oxamate derivatives, along with other structure features such as linker length and number of OMA units for SAR analysis.

Row | pEC50 | EC50 | Structure (SMILES) | Ratio
1 | 4.20 | 63.8 µM | O=C(O)C(=O)NCCCC[C@H](NC(=O)C(=O)O)C(=O)O [Compound 9, L-Lysine N^α,N^ε-dioxalate] | 10
2 | 6.03 | 0.925 µM | O=C(O)C(=O)NCCCC[C@H](NC(=O)C(=O)O)C(=O)NCCCCCCNC(=O)[C@H](CCCCNC(=O)C(=O)O)NC(=O)C(=O)O [Compound 19f, N,N′-(1,6-hexylene)bis(L-Lysinamide) N^α, N^α′,N^ε,N^ε′-tetraoxalate] | 719
3 | 5.44 | 3.6 µM | O=C(O)C(=O)NCCCC[C@H](NC(=O)C(=O)O)C(=O)NCCCCCNC(=O)[C@H](CCCCNC(=O)C(=O)O)NC(=O)C(=O)O [Compound 19e, N,N′-(1,5-pentylene)bis(L-Lysinamide) N^α, N^α′,N^ε,N^ε′-tetraoxalate] | 185
4 | 3.89 | 127 µM | O=C(O)C(=O)NCCNC(=O)C(=O)O [Compound 11b] | 5

Row | Structure (SMILES) | pEC50 | EC50 | Ratio
5 | O=C(O)CC(O)(CC(=O)O)C(=O)O [Citrate, reference compound] | 3.18 | 665 µM | 1
